Literature values in patent publication EP4616878A1, “CANNULA FOR RECTAL ADMINISTRATION OF AN ENEMA AND COMPOSITIONS FOR USE THEREWITH” (Cosmo Technologies Ltd., priority 2024, dated 2025).

Key:
nuclear factor-KB (NFκB) = conditions: cell line which lacks PXR expression
[1] = in vivo
[2] = target: T1, pregnane X receptor (PXR) (Homo sapiens, UniProt O75469); conditions: liver and intestinal cell lines; also downstream targets CYP3A4 and PgP
T1 sequence (O75469 1-434): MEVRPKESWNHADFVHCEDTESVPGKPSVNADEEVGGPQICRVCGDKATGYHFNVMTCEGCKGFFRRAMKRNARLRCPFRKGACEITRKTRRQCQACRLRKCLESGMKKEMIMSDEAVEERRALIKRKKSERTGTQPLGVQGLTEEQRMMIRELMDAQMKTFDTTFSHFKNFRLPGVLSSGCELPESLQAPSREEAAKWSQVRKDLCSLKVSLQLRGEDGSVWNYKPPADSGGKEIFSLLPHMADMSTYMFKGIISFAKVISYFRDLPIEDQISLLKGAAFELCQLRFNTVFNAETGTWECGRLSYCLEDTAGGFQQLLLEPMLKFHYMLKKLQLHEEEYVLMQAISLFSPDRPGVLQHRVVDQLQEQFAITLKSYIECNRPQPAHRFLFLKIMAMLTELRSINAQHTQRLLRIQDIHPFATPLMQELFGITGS

- absorption in the bloodstream [1]: negligible
- effect on PXR [2]: activate
SMILES: CO[C@H]1/C=C/O[C@@]2(C)Oc3c(C)c(O)c4c(O)c(cc(O)c4c3C2=O)NC(=O)/C(C)=C\C=C\[C@H](C)[C@H](O)[C@@H](C)[C@@H](O)[C@@H](C)[C@H](OC(C)=O)[C@@H]1C [Rifamycin, Rifamycin SV]
- effect on NFκB (nuclear factor-KB (NFκB)): directly inhibited
